This note sets out measurements from DBAASP.

What all share (experiment): ≥ marks a high value that may be exact or a test limit, other limits are often not marked, values filed in µg/mL are converted to µM
Experiment [1] relates to Staphylococcus aureus ATCC 25923.
Experiment [2] has as its system Nocardia asteroides 201118.
For experiment [3], the system named is Escherichia coli ATCC 25922.
In experiment [4] the test system is Escherichia coli ATCC 8739.
The subject of experiment [5] is Klebsiella pneumoniae ATCC 13883.
Experiment [6] deals with Staphylococcus aureus ATCC 29213.
For experiment [7], the system named is Acinetobacter baumannii ATCC 19606.
The subject of experiment [8] is Pseudomonas aeruginosa ATCC 47085.
Experiment [9] has as its system Candida albicans F7-39/IDE99.
Experiment [10] has as its system Staphylococcus aureus ATCC 43300.
Experiment [11] relates to Staphylococcus aureus 1.
Experiment [12] has as its system Pseudomonas aeruginosa.
In experiment [13] the test system is Bacillus subtilis 168.
The subject of experiment [14] is Escherichia coli B.
The test system of experiment [15] is Staphylococcus epidermidis.
Experiment [16] relates to Pseudomonas aeruginosa ATCC 27853.
For experiment [17], the system named is Micrococcus luteus CCM 144.
Experiment [18] deals with Staphylococcus aureus.
The test system of experiment [19] is Fusarium graminearum PH-1.
Experiment [20] has as its system Staphylococcus aureus ATCC 33591.
For experiment [21], the system named is Staphylococcus epidermidis ATCC 35984.
Experiment [22] relates to Escherichia coli BW25113 ΔsbmA.
Experiment [23] has as its system Klebsiella pneumoniae ATCC 700603.
Experiment [24] relates to Salmonella enterica subsp. enterica serovar Typhimurium ATCC 14028.
Experiment [25] relates to Escherichia coli BW25113.
The subject of experiment [26] is Staphylococcus aureus ATCC 9144.
The test system of experiment [27] is Escherichia coli HB101.
For experiment [28], the system named is Corynebacterium glutamicum ATCC 13032.
Experiment [29] relates to Bacillus subtilis.
Experiment [30] deals with Escherichia coli.
The subject of experiment [31] is Salmonella typhimurium.
For experiment [32], the system named is Proteus vulgaris.
In experiment [33] the test system is Streptococcus pyogenes.

In brackets after ≈: the same amount, converted by molar mass. Where only a bound is given, the exact number is not on record here.

`CC[C@H](C)[C@H](NC(=O)[C@H](C)NC(=O)CNC(=O)[C@@H](NC(=O)[C@H](CC(C)C)NC(=O)[C@H](CC(C)C)NC(=O)[C@@H]1CCCN1C(=O)[C@H](CC(C)C)NC(=O)[C@@H](N)Cc1ccccc1)C(C)C)C(=O)N[C@@H](CO)C(=O)N[C@@H](CO)C(=O)N[C@H](C(=O)N[C@@H](CC(C)C)C(=O)N1CCC[C@H]1C(=O)N[C@@H](CCCCN)C(=O)N[C@H](C(=O)N[C@@H](Cc1ccccc1)C(N)=O)[C@@H](C)CC)[C@@H](C)CC` [FLPLLVGAISSILPKIF]: the MIC was 12.5 µM (≈ 22.8 µg/mL) in experiment [1] and 6.3 µM (≈ 11.5 µg/mL) in [2].

As to `CC[C@H](C)[C@H](NC(=O)CN)C(=O)NCC(=O)N[C@@H](C)C(=O)N[C@H](C(=O)N[C@@H](CC(C)C)C(=O)N[C@@H](CCCCN)C(=O)N[C@H](C(=O)N[C@@H](CC(C)C)C(=O)N[C@H](C(=O)N[C@H](C(=O)NCC(=O)N[C@@H](CC(C)C)C(=O)N1CCC[C@H]1C(=O)N[C@@H](C)C(=O)N[C@@H](CC(C)C)C(=O)N[C@H](C(=O)N[C@@H](CO)C(=O)N[C@@H](Cc1c[nH]c2ccccc12)C(=O)N[C@H](C(=O)N[C@@H](CCCCN)C(=O)N[C@@H](CCCN=C(N)N)C(=O)N[C@@H](CCCCN)C(=O)N[C@@H](CCCN=C(N)N)C(=O)N[C@@H](CCC(N)=O)C(=O)N[C@@H](CCC(N)=O)C(=O)O)[C@@H](C)CC)[C@@H](C)CC)[C@@H](C)O)[C@@H](C)O)C(C)C)C(C)C` [GIGAVLKVLTTGLPALISWIKRKRQQ], the minimal inhibitory concentration (MIC) in experiment [3] turned out to be 6.3 µM (≈ 17.9 µg/mL); in [4], 4.52 µM (≈ 12.9 µg/mL); in [5], 3.5 µM (≈ 9.97 µg/mL); in experiment [6], 3.83 µM (≈ 10.9 µg/mL); in experiment [7] it was 4.1 µM (≈ 11.7 µg/mL); in [8] it was 4.9 µM (≈ 14 µg/mL).

As to `CC[C@H](C)[C@H](NC(=O)CN)C(=O)N[C@@H](CC(C)C)C(=O)N[C@@H](CO)C(=O)N[C@@H](CO)C(=O)N[C@@H](CC(C)C)C(=O)N[C@@H](Cc1c[nH]c2ccccc12)C(=O)N[C@@H](CCCCN)C(=O)N[C@@H](CCCCN)C(=O)N[C@@H](CC(C)C)C(=O)N[C@@H](CCCCN)C(=O)N[C@@H](CCCCN)C(=O)N[C@@H](Cc1c[nH]c2ccccc12)C(=O)N[C@H](C(=O)N[C@@H](C)C(=O)N[C@@H](CCCCN)C(N)=O)[C@@H](C)CC` [GILSSLWKKLKKWIAK], the minimal inhibitory concentration (MIC) in experiment [9] was found to be 13 µM (≈ 24.7 µg/mL); in [10], 2.5 µM (≈ 4.75 µg/mL); in [11], 1.8 µM (≈ 3.42 µg/mL); in [12], 24 µM (≈ 45.6 µg/mL); in experiment [13], 7 µM (≈ 13.3 µg/mL); in experiment [14], 2.5 µM (≈ 4.75 µg/mL). Moreover, the MIC in [15] turned out to be 1.6 µM (≈ 3.04 µg/mL); in experiment [16] it was 13 µM (≈ 24.7 µg/mL); in experiment [17], 3 µM (≈ 5.7 µg/mL); in experiment [18] it was 2 µM (≈ 3.8 µg/mL).

Regarding `CC[C@H](C)[C@H](NC(=O)[C@H](CCCCN)NC(=O)[C@H](CCCCN)NC(=O)[C@H](CC(C)C)NC(=O)[C@H](CCCCN)NC(=O)[C@H](CCCCN)NC(=O)[C@H](Cc1c[nH]c2ccccc12)NC(=O)[C@H](CC(C)C)NC(=O)[C@H](CO)NC(=O)[C@H](CO)NC(=O)[C@H](CC(C)C)NC(=O)[C@H](CCCCN)NC(=O)CN)C(=O)N[C@H](C(=O)N[C@@H](C)C(=O)N[C@@H](CCCCN)C(N)=O)[C@@H](C)CC` [GKLSSLWKKLKKIIAK], the MIC in [9] is at least 34 µM; in experiment [10], 26 µM (≈ 47.8 µg/mL); in experiment [11] it was 11 µM (≈ 20.2 µg/mL); in [12], 19 µM (≈ 35 µg/mL); in experiment [13] it was 7 µM (≈ 12.9 µg/mL); in experiment [14], 20 µM (≈ 36.8 µg/mL). In addition, the MIC was determined as 2.5 µM (≈ 4.6 µg/mL) in experiment [15], 6.8 µM (≈ 12.5 µg/mL) in experiment [16], 3 µM (≈ 5.52 µg/mL) in experiment [17] and 27 µM (≈ 49.7 µg/mL) in [18].

As for `NCC(=O)N1CCC[C@H]1C(=O)N[C@H]1CSSC[C@@H](C(=O)O)NC(=O)CNC(=O)[C@H](CO)NC(=O)[C@H](Cc2ccccc2)NC1=O` [GPCFSGC], in experiment [19], the MIC is at least 48 µM.

Regarding `CC(C)[C@H](NC(=O)[C@H](Cc1ccccc1)NC(=O)[C@H](C)NC(=O)[C@H](CCCCN)NC(=O)CNC(=O)[C@H](Cc1ccccc1)NC(=O)[C@H](CCCCN)NC(=O)[C@H](CCCCN)NC(=O)[C@H](C)NC(=O)[C@H](CCCCN)NC(=O)[C@@H](N)CCCCN)C(=O)N[C@@H](CCCCN)C(N)=O` [KKAKKFGKAFVK], the MIC in experiment [1] is above 371 µM; in experiment [20], at least 371 µM; in experiment [21], at least 371 µM; in experiment [16], above 371 µM.

Regarding `CC[C@H](C)[C@H](NC(=O)[C@@H]1CCCN1C(=O)[C@@H]1CCCN1C(=O)[C@H](CCCN=C(N)N)NC(=O)[C@H](Cc1ccccc1)NC(=O)[C@@H](N)CCCN=C(N)N)C(=O)N[C@@H](CCCN=C(N)N)C(=O)N[C@@H](CCCN=C(N)N)C(=O)N1CCC[C@H]1C(=O)N1CCC[C@H]1C(=O)N[C@H](C(=O)N[C@@H](CCCN=C(N)N)C(=O)N1CCC[C@H]1C(=O)N1CCC[C@H]1C(=O)N[C@@H](Cc1ccccc1)C(=O)N[C@@H](Cc1ccc(O)cc1)C(=O)N1CCC[C@H]1C(=O)N1CCC[C@H]1C(=O)N[C@@H](Cc1ccccc1)C(=O)N[C@@H](CCCN=C(N)N)C(=O)N1CCC[C@H]1C(=O)O)[C@@H](C)CC` [RFRPPIRRPPIRPPFYPPFRP], the MIC was above 64 µM in [1]; 4 µM (≈ 10.6 µg/mL) in experiment [3]; 16 µM (≈ 42.6 µg/mL) in [22]; 32 µM (≈ 85.1 µg/mL) in experiment [23]; 8 µM (≈ 21.3 µg/mL) in [24]; 16 µM (≈ 42.6 µg/mL) in experiment [7]. Besides, the minimal inhibitory concentration (MIC) in experiment [16] was above 64 µM; in [25], 2 µM (≈ 5.32 µg/mL).

As to `CC[C@H](C)[C@H](NC(=O)[C@@H]1CCCN1C(=O)[C@H](CCCCN)NC(=O)[C@@H]1CCCN1C(=O)[C@H](CCCN=C(N)N)NC(=O)CNC(=O)[C@@H]1CCCN1C(=O)[C@H](Cc1ccccc1)NC(=O)[C@@H]1CCCN1C(=O)[C@H](CCCN=C(N)N)NC(=O)[C@@H]1CCCN1C(=O)[C@H](CCCN=C(N)N)NC(=O)CNC(=O)[C@@H]1CCCN1C(=O)[C@H](CO)NC(=O)[C@@H]1CCCN1C(=O)[C@H](Cc1c[nH]c2ccccc12)NC(=O)[C@H](CCCN=C(N)N)NC(=O)[C@@H](N)CO)C(=O)N[C@@H](Cc1ccccc1)C(=O)N[C@@H](CCCN=C(N)N)C(=O)N1CCC[C@H]1C(=O)N[C@@H](CCCN=C(N)N)C(=O)O` [SRWPSPGRPRPFPGRPKPIFRPR], the MIC in [26] was at least 100 µM; in [3] it was 6.3 µM (≈ 17.3 µg/mL); in experiment [27] it was 3.1 µM (≈ 8.5 µg/mL); in experiment [28], 0.8 µM (≈ 2.19 µg/mL); in [16] it was 12.5 µM (≈ 34.3 µg/mL).

On to `CC[C@H](C)[C@H](NC(=O)[C@@H](N)Cc1ccc(O)cc1)C(=O)N1CCC[C@H]1C(=O)N[C@@H](CCC(N)=O)C(=O)N1CCC[C@H]1C(=O)N[C@@H](CCCN=C(N)N)C(=O)N1CCC[C@H]1C(=O)N1CCC[C@H]1C(=O)N[C@@H](Cc1cnc[nH]1)C(=O)N1CCC[C@H]1C(=O)N[C@@H](CCCN=C(N)N)C(=O)N[C@@H](CC(C)C)C(=O)O` [YIPQPRPPHPRL], for which the MIC in [29] is at least 64 µM; in experiment [12], 64 µM (≈ 94.1 µg/mL); in experiment [30] it was 64 µM (≈ 94.1 µg/mL); in [15], at least 64 µM; in experiment [31], 0.5 µM (≈ 0.735 µg/mL); in [32], at least 64 µM. The molecule also came in with an MIC in experiment [33] of at least 64 µM.
